Experimental data: patent publication US11168102B1, “Bicyclic heteroaryl compounds and uses thereof” (Revolution Medicines, Inc., priority 2019, dated 2021)

How the values were obtained:
[1] = target: SOS1 catalytic domain (residues 564-1049) (Homo sapiens (Human), UniProt Q07889); assay: Potency assay: binding affinity to SOS1 by Surface Plasmon Resonance (SPR); details: avi-tagged SOS1 catalytic domain immobilized on sensor chip; 1:1 equilibrium binding fit
[2] = target: SOS1 nucleotide exchange of wild-type KRAS (Homo sapiens (Human), UniProt Q07889); assay: Mode of action assay: inhibition of SOS1 nucleotide exchange activity (TR-FRET); format: biochemical; details: SOS1 catalytic domain (564-1049), avi-tagged KRAS (1-169), EDA-GTP-DY-647P1; three replicates
[3] = tested on: cellular pERK in PC-9 cells (EGFR Ex19Del); assay: Potency assay: pERK (AlphaLISA SureFire Ultra p-ERK1/2) in PC-9 cells; format: cell-based; details: Homo sapiens, PC-9, 1 h, PC-9 cells (EGFR Ex19Del), 1 hour incubation, AlphaLISA SureFire Ultra p-ERK1/2; read-out: SOS1 pERK IC50

Chain of SOS1 nucleotide exchange of wild-type KRAS (Q07889 564-1049): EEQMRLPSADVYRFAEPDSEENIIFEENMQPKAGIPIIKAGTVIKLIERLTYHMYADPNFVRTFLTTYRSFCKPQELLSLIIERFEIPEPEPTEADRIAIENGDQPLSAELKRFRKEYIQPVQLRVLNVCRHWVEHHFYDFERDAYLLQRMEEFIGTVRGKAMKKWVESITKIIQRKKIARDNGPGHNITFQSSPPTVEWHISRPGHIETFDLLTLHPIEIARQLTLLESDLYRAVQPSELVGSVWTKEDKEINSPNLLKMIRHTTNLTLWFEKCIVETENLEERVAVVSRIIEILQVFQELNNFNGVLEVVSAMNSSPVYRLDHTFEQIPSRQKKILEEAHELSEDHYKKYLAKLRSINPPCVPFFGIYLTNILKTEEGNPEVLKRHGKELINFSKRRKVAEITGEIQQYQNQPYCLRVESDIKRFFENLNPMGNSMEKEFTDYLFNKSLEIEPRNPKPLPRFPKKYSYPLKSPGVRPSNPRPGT
Chain of SOS1 catalytic domain (residues 564-1049) (Q07889 564-1049): as above

SMILES | Kd [1] [nM] | IC50 [2] [nM] | IC50 [3] [nM]
C[C@@H]1CN(C(=O)c2cc3c(N[C@H](C)c4cccc(C(F)F)c4F)ncnc3n(C)c2=O)C[C@@H](C)O1 [Example 26-21] | 114 | 24.9 | 520
C[C@@H](Nc1ncnc2c1cc(C1=C[C@@H]3CNC[C@H](C1)O3)c(=O)n2C)c1cccc(C(F)F)c1F [Example 1-15] | 6.29 | 39.8 | 217
CC(=O)N1CC=C(c2cc3c(N[C@H](C)c4cccc(C(C)(F)F)c4)ncnc3n(C)c2=O)CC1 [Example 1-12] | 36.8 | 34 | 125
C[C@@H](Nc1ncnc2c1cc(C1=CCNCC1)c(=O)n2C)c1cccc(C(F)F)c1F [Example 1-3] | 7.86 | 21.2 | 50.3
C[C@@H](Nc1ncnc2c1cc(C1(O)CCC3(CC1)CS(=O)(=O)C3)c(=O)n2C)c1cccc(C(F)F)c1F [Example 28-6] | 21 | 14 | 123
CC(=O)N1CC=C(c2cc3c(N[C@H](C)c4cccc5c4OCC5(F)F)ncnc3n(C)c2=O)CC1 [Example 1-18] | 22 | 12.8 | 67
C[C@@H]1COC[C@H](C)N1C(=O)c1cc2c(N[C@H](C)c3cccc(C(F)F)c3F)ncnc2n(C)c1=O [Example 26-25] | 350 | 106 | 605
C[C@@H]1CN(C(=O)c2cc3c(N[C@H](C)c4cccc(C(F)F)c4F)ncnc3n(C)c2=O)C[C@H](C)O1 [Example 26-22] | 474 | 113 | 2610
Cc1nc(N[C@H](C)c2cccc(C(F)F)c2F)c2cc(C3=CCNCC3)c(=O)n(C)c2n1 [Example 1-9] | 74 | 48.9 | 666
C[C@@H](Nc1ncnc2c1cc(C1=CCS(=O)(=O)CC1)c(=O)n2C)c1cccc(C(F)F)c1F [Example 1-17] | 21.3 | 13 | 50.7
C[C@@H](Nc1ncnc2c1cc(C1(O)CCS(=O)(=O)C1)c(=O)n2C)c1cccc(C(F)F)c1F (stereo partly drawn) [Example 28-3] | 128 | 99.8 | 111
Cc1nc(N[C@H](C)c2cccc(C(F)F)c2F)c2cc(N3CCN(C)CC3=O)c(=O)n(C)c2n1 [Example 2-5] | 97 | 112 | 824
C[C@@H](Nc1ncnc2c1cc(C(=O)N1CCc3ccncc31)c(=O)n2C)c1cccc(C(F)F)c1F [Example 26-29] | 136 | 97.8 | 1450
Cc1nc(N[C@H](C)c2cccc(C(F)F)c2F)c2cc(C3=CCS(=N)(=O)CC3)c(=O)n(C)c2n1 (stereo partly drawn) [Example 23-1] | 86.2 | 78.3 | 76
C[C@@H](Nc1ncnc2c1cc(C(=O)N1CCN(C)CC1)c(=O)n2C)c1cccc(C(F)F)c1F [Example 26-7] | 77.5 | 50.8 | 186
COc1ncccc1-c1cc2c(N[C@H](C)c3cccc(C(F)F)c3F)nc(C)nc2n(C)c1=O [Example 21-9] | 338 | 99 | 335
Cc1nc(N[C@H](C)c2cccc(C(F)F)c2F)c2cc(N3CCNCC3=O)c(=O)n(C)c2n1 [Example 2-4] | 153 | 89.2 | 906
Cc1nc(N[C@H](C)c2cccc(C(F)F)c2F)c2cc(C3(F)CCN(C)CC3)c(=O)n(C)c2n1 [Example 29-4] | 52.2 | 15.9 | 144
C[C@@H](Nc1ncnc2c1cc(C(=O)N(C)c1nccs1)c(=O)n2C)c1cccc(C(F)F)c1F [Example 26-20] | 1460 | 331 | 1750
C[C@@H](Nc1ncnc2c1cc(C(=O)N1CCOCC1)c(=O)n2C)c1cccc(C(F)F)c1F [Example 26-2] | 118 | 102 | 314
C[C@@H](Nc1ncnc2c1cc(C1CN(C)CCO1)c(=O)n2C)c1cccc(C(F)F)c1F (stereo partly drawn) [Example 8-1] | 24.2 | 24.6 | 68.4
Cc1nc(N[C@H](C)c2cccc(C(F)F)c2F)c2cc(-c3cccnc3OCCO)c(=O)n(C)c2n1 [Example 21-11] | 234 | 173 | 452
C[C@@H](Nc1ncnc2c1cc(C(=O)N1CC(C)(O)C1)c(=O)n2C)c1cccc(C(F)F)c1F [Example 26-3] | 404 | 407 | 659
C[C@@H](Nc1ncnc2c1cc(C(=O)N1C3CC1CN(C)C3)c(=O)n2C)c1cccc(C(F)F)c1F [Example 26-11] | 97.8 | 46.1 | 251
COc1ccc(-c2cc3c(N[C@H](C)c4cccc(C(F)F)c4F)ncnc3n(C)c2=O)cc1OC [Example 21-10] | 849 | 532 | 611
C[C@@H](Nc1ncnc2c1cc(C1=CCN(C)CC1)c(=O)n2C)c1cccc(C(F)(F)F)c1 [Example 1-8] | 20 | 20.1 | 169
CC(=O)N1CC=C(c2cc3c(N[C@H](C)c4cccc(C(F)(F)F)c4C)ncnc3n(C)c2=O)CC1 [Example 1-19] | 144 | 44.3 | 91
C[C@@H](Nc1ncnc2c1cc(C(=O)N1CCc3ncccc31)c(=O)n2C)c1cccc(C(F)F)c1F [Example 26-26] | 269 | 72.2 | 228
Cc1nc(N[C@H](C)c2cccc(C(F)F)c2F)c2cc(C3=CCN(C)CC3)c(=O)n(C)c2n1 [Example 1-10] | 23.2 | 42.9 | 425
